Experimental data reported in ChEMBL document CHEMBL3526059, “Reversible inhibition of human carboxylesterases by acyl glucuronides” (Drug Metab Dispos, 2013).

Experiments:
[1] = Half life in phosphate buffer at 10 uM at pH 7.4 by LC/TOF-MS analysis; assay type: physicochemical
[2] = Half life in buffer at pH 7.4 by 1H NMR spectroscopic analysis in presence of human urine; assay type: physicochemical; conditions: buffer with human urine
Cocaine esterase [3] = biological target: T1, Cocaine esterase (Homo sapiens, UniProt O00748); test: Inhibition of human CES2 assessed as hydrolysis of 4NPA to 4NP at 1 mM by spectrophotometric analysis; conditions: 1000 µM
T1 sequence (O00748 whole entry): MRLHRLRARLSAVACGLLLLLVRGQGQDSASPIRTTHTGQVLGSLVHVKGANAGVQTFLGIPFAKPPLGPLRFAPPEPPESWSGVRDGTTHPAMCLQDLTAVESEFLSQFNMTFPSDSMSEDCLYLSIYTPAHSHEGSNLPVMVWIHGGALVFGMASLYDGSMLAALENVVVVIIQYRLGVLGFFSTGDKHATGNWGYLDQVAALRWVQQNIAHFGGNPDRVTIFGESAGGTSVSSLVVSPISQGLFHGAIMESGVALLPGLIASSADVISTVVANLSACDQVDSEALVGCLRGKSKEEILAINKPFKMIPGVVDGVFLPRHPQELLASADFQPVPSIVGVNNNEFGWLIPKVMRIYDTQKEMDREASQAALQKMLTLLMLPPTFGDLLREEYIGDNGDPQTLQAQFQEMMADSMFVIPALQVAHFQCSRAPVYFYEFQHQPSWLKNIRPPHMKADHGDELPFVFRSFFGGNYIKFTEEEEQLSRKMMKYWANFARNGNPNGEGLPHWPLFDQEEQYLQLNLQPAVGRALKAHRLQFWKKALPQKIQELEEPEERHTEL

Liver carboxylesterase 1 [4] = biological target: T2, Liver carboxylesterase 1 (Homo sapiens, UniProt P23141); test: Reversible inhibition of human CES1 assessed as hydrolysis of 4NPA to 4NP
T2 sequence (P23141 whole entry): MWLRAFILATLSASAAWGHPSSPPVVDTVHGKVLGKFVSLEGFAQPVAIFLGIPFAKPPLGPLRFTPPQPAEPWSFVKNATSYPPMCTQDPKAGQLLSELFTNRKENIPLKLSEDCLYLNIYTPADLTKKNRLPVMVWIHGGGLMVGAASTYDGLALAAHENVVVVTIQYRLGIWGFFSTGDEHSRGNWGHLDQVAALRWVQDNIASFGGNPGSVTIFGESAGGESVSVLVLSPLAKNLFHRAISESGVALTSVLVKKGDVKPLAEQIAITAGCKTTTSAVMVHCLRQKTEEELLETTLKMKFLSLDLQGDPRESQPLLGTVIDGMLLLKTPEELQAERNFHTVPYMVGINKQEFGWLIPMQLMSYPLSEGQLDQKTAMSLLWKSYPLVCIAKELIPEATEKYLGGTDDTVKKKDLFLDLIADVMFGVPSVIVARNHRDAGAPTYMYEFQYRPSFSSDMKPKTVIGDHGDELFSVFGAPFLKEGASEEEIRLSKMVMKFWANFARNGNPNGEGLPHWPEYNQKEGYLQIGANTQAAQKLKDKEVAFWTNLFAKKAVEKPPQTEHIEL

Liver carboxylesterase 1 [5] = biological target: T2, Liver carboxylesterase 1; test: Inhibition of human CES1 assessed as hydrolysis of 4NPA to 4NP at 1 mM by spectrophotometric analysis; conditions: 1000 µM
[6] = Half life of the compound; assay type: physicochemical
[7] = Half life in phosphate buffer at pH 7.4 by HPLC analysis; assay type: physicochemical
Liver carboxylesterase 1 [8] = biological target: T2, Liver carboxylesterase 1; test: Activity of human CES1 assessed as loss of 1-O-acyl glucuronide at 100 uM measured at 10 mins by LC/TOF-MS analysis relative to control; assay type: ADME
Liver carboxylesterase 1 [9] = biological target: T2, Liver carboxylesterase 1; test: Activity of human CES1 assessed as loss of 1-O-acyl glucuronide at 100 uM measured at 30 mins by LC/TOF-MS analysis relative to control; assay type: ADME; conditions: 0.5 h
Liver carboxylesterase 1 [10] = biological target: T2, Liver carboxylesterase 1; test: Time-dependent inhibition of human CES1 assessed as hydrolysis of 4NPA to 4NP preincubated for 30 mins followed by 4NPA addition
Liver carboxylesterase 1 [11] = biological target: T2, Liver carboxylesterase 1; test: Activity of human CES1 assessed as loss of 1-O-acyl glucuronide at 100 uM measured at 60 mins by LC/TOF-MS analysis relative to control; assay type: ADME; conditions: 1 h
Liver carboxylesterase 1 [12] = biological target: T2, Liver carboxylesterase 1; test: Time-dependent inhibition of human CES1 assessed as hydrolysis of 4NPA to 4NP preincubated for 60 mins followed by 4NPA addition
Liver carboxylesterase 1 [13] = biological target: T2, Liver carboxylesterase 1; test: Time-dependent inhibition of human CES1 assessed as hydrolysis of 4NPA to 4NP preincubated for 10 mins followed by 4NPA addition
Cocaine esterase [14] = biological target: T1, Cocaine esterase; test: Inhibition of human CES2

CC(C)Cc1ccc(C(C)C(=O)O[C@@H]2O[C@H](C(=O)O)[C@@H](O)[C@H](O)[C@H]2O)cc1 (mixture of isomers)
half-life at 10 µM [1]: 3.67 h | half-life [2]: 3.5 h | inhibition (INH) (Cocaine esterase [3]): Not Active | Ki (Liver carboxylesterase 1 [4]): 355 µM

CCCC(CCC)C(=O)O[C@@H]1O[C@H](C(=O)O)[C@@H](O)[C@H](O)[C@H]1O
half-life at 10 µM [1]: 15.2 h | inhibition (INH) (Liver carboxylesterase 1 [5]): Not Active | half-life [6]: 60 h | inhibition (INH) (Cocaine esterase [3]): Not Active

CC(C)Cc1ccc([C@H](C)C(=O)O[C@@H]2O[C@H](C(=O)O)[C@@H](O)[C@H](O)[C@H]2O)cc1
half-life [7]: 3.3 h

O=C(O[C@@H]1O[C@H](C(=O)O)[C@@H](O)[C@H](O)[C@H]1O)c1cn(Cc2c(F)cccc2F)nn1
half-life at 10 µM [1]: 0.252 h | inhibition (INH) (Liver carboxylesterase 1 [5]): Not Active | inhibition (INH) (Cocaine esterase [3]): Not Active

CC(C)Cc1ccc([C@@H](C)C(=O)O[C@@H]2O[C@H](C(=O)O)[C@@H](O)[C@H](O)[C@H]2O)cc1
half-life [7]: 1.8 h

O=C(Cc1ccccc1Nc1c(Cl)cccc1Cl)O[C@@H]1O[C@H](C(=O)O)[C@@H](O)[C@H](O)[C@H]1O
half-life at 10 µM [1]: 0.537 h | Activity (Liver carboxylesterase 1 [8]): 20% | inhibition (INH) (Cocaine esterase [3]): Not Active | Activity (Liver carboxylesterase 1 [9]): 50% | IC50 (Liver carboxylesterase 1 [10]): 1.96 µM | Activity (Liver carboxylesterase 1 [11]): 75% | IC50 (Liver carboxylesterase 1 [12]): 2.27 µM | IC50 (Liver carboxylesterase 1 [13]): 2.51 µM | Ki (Liver carboxylesterase 1 [4]): 4.32 µM

COc1ccc2cc([C@@H](C)C(=O)O[C@@H]3O[C@H](C(=O)O)[C@@H](O)[C@H](O)[C@H]3O)ccc2c1
half-life at 10 µM [1]: 0.996 h | inhibition (INH) (Cocaine esterase [3]): Not Active | Ki (Liver carboxylesterase 1 [4]): 468 µM

O=C(O)[C@H]1O[C@@H](OC(=O)[C@H](c2ccccc2Cl)N2CCc3sccc3C2)[C@H](O)[C@@H](O)[C@@H]1O
half-life at 10 µM [1]: 5.02 h | inhibition (INH) (Cocaine esterase [3]): Not Active | Ki (Liver carboxylesterase 1 [4]): 24.8 µM

COc1ccc2cc([C@H](C)C(=O)O[C@@H]3O[C@H](C(=O)O)[C@@H](O)[C@H](O)[C@H]3O)ccc2c1
half-life at 10 µM [1]: 1.77 h | inhibition (INH) (Cocaine esterase [3]): Not Active | Ki (Liver carboxylesterase 1 [4]): 707 µM

CCCC(CCC)C(=O)O [VALPROIC ACID]
Ki (Cocaine esterase [14]): 7900 µM
